Source: the NIST ThermoML archive (doi:10.1016/j.jct.2006.09.003)

Details: Fluid (supercritical or subcritical phases), Bellows volumetry

CCCC [butane]
mass density [kg/m3]
Details | 280 K | 300 K | 320 K | 340 K | 360 K | 380 K
1000 kPa | 595.47 | 572.94 | 548.24 | 521.26 | – | –
2000 kPa | 596.86 | 574.58 | 550.53 | 524.21 | 494.28 | 456.63
3000 kPa | 598.22 | 576.27 | 552.73 | 527.06 | 498.49 | 463.53
5000 kPa | 600.88 | 579.56 | 556.84 | 532.46 | 505.91 | 474.94
10000 kPa | 607.05 | 586.77 | 566.09 | 544.06 | 520.98 | 495.21
20000 kPa | 617.68 | 599.44 | 580.87 | 561.99 | 542.91 | 522.42
30000 kPa | 626.91 | 610.13 | 593.19 | 576.2 | 559.24 | 541.49
40000 kPa | 635.29 | 619.89 | 603.68 | 588.27 | 572.58 | 556.53
50000 kPa | 642.77 | 628.14 | 612.97 | 598.47 | 584.17 | 569.05
60000 kPa | 649.44 | 635.82 | 621.23 | 607.64 | 593.9 | 580.01
70000 kPa | 655.79 | 642.36 | 628.85 | 615.81 | 602.93 | 589.59
80000 kPa | 661.73 | 648.71 | 635.85 | 623.32 | 610.9 | 598.34
90000 kPa | 667.23 | 654.83 | 642.47 | 630.37 | 618.47 | 606.19
100000 kPa | 672.51 | 660.41 | 648.38 | 636.58 | 625.39 | 613.44
120000 kPa | 682.08 | 670.68 | 659.38 | 648.45 | 637.62 | 626.58
140000 kPa | 690.89 | 680.05 | 669.21 | 658.64 | 648.76 | 638.25
160000 kPa | 698.82 | 688.48 | 678.31 | 668.16 | 658.47 | 648.59
180000 kPa | 706.38 | 696.25 | 686.49 | 676.9 | 667.68 | 658.14
200000 kPa | 713.34 | 703.51 | 694.12 | 684.85 | 676.03 | 666.86
